According to US7056679B2, “Target specific screening and its use for identifying target binders” (Antyra, Inc., priority 2001, dated 2006):

Legend:
[1] = tested on: E-tag antibody; assay: ELISA analysis of phage on antibody raised against ETAG (positive control); conditions: peptide binding to E-tag antibody; phage ELISA units read at 405 nm
How it was run: (§1)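 Phage from picked clones (M13KO7 helper) bound 2 hr at room temperature to wells coated overnight at 4 °C with 500 ng/well anti-ETAG antibody or LDH, milk-blocked. Detection with HRP-anti-M13 (1:3000) and ABTS at 405 nm; positive when A405 ≥2-fold over background.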

[2] = target: T1, DGI-2 (Homo sapiens, UniProt Q15004); assay: ELISA analysis of phage on DGI-2 polypeptide (specific binding); conditions: for DGI-2 (OD): binding to DGI-2 polypeptide (specific binding), phage ELISA units read at 405 nm; for DGI-2/LDH (OD): ratio of specific binding to non-specific binding
T1 construct: encompassed the entire DGI-2 open reading frame (ORF); His-tag of vector pIVEX2.3-MCS (inferred from the vector and from the reverse primer lacking a stop codon); made in house; host or cells: cell-free in vitro translation (Rapid Translation System RTS, Roche; E. coli lysate)
T1 sequence (Q15004 1-111): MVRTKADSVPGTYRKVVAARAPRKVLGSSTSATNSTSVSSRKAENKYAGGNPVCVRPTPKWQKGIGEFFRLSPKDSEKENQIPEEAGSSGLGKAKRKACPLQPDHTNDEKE
How it was run: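 Recombinant DGI-2 from in vitro translation, LDH (non-specific) and controls were coated at 500 ng/well and blocked with 2% milk-PBS. Phage from individual clones bound for 2 hr at room temperature, then anti-M13-HRP with ABTS was read at 405 nm; a clone counted as positive at ≥2-fold over background.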

[3] = tested on: lactate dehydrogenase (LDH); assay: ELISA analysis of phage on LDH (irrelevant, non-specific target); format: binding; conditions: peptide binding to LDH polypeptide (non-specific binding); phage ELISA units read at 405 nm
How it was run: as §1

Substance	ETAG (OD) [1] [OD]	DGI-2 (OD) [2] [OD]	DGI-2/LDH (OD) [2]	LDH (OD) [3] [OD]
TVKFQGVVQERSRIAGFRYCGDHAVSWGLAGCPALRDKLQ (DGI-2-40F-3-C424; listed as Escherichia coli)	14.8	5.5	5.2	1.1
MSSTAWTDRILQRGIGLGPV (DGI-2-20R-4-F1212; listed as Escherichia coli)	9.8	4.0	3.3	1.2
VWRDWVNGTVGLRNREKPGV (DGI2-20R-3-A5; listed as Escherichia coli) [DGI-2-20R-3-A5]	14.9	10.9	9.8	1.1
TPDRCLIYSSIQCLLEYSARRGSAD (DGI-2-20C-3-C65; listed as Escherichia coli)	7.4	1.8	1.8	1.0
HPWVTNMLVFQRPPPPGFWLSDTTPRQRNGLGQVERPSVD (DGI-2-40F-3-C7; listed as Escherichia coli)	8.8	1.2	1.5	0.8
VCGQRVARMQLNKTIRKLDS (DGI-2-20F-PP-A6; listed as Escherichia coli)	35.1	3.1	2.8	1.1
DGRGWGAMWMRWAEGLGADI (DGI-2-20R-4-G114; listed as Escherichia coli)	16.5	12.9	11.0	1.2
TPVAISIPAGVCSTSVCGRD (DGI-2-20F-PP-C11; listed as Escherichia coli)	3.2	2.4	2.6	0.9
QSNVWVLVGVIMQGVWYQRQHYCVYVMLLSDQVSVLLAVA (DGI-2-40F-3-B6; listed as Escherichia coli)	1.8	0.9	1.2	0.8
DVGAVVRSGHCASRPGE*QVR (DVGAVVRSGHCASRPGEQVR; DGI-2-20F-PP-H9; listed as Escherichia coli)	13.6	1.6	1.5	1.1
VLCLE#ALGLSGLGWRVVVGP (VLCLEALGLSGLGWRVVVGP; DGI-2-20F-PP-G4; listed as Escherichia coli)	25.6	2.5	2.2	1.1
GNKCFPPHDLFWDPCDQLQS (DGI-2-20R-4-F6; listed as Escherichia coli)	13.2	2.3	2.3	1.0
GGGRESWGGGWFMGWGSGAG (DGI-2-20R-3-A6; listed as Escherichia coli)	17.7	5.8	5.9	1.0
YAMSSRECGIRNSGLILSMW (DGI-2-20F-PP-C9; listed as Escherichia coli)	31.6	3.5	3.9	0.9
GWGCSVPGILCVGGHRQGGG (DGI-2-20R-3-B11; listed as Escherichia coli)	16.9	5.9	5.7	1.0
KVWGCGARRGWERLGHLNQV (DGI-2-20F-PP-B10; listed as Escherichia coli)	27.1	1.9	2.4	0.8

Substance	ETAG (OD) [1] [OD]	DGI-2 (OD) [2] [OD]	DGI-2/LDH (OD) [2]	LDH (OD) [3] [OD]
RRGVCEIFTGWCVGQTNERP (DGI-2-20R-4-H626; listed as Escherichia coli)	13.5	9.6	8.8	1.1
TCWIHRGLNVVRYSVNFGVRDARLTTQGMAWFPPGCGQGCV (TCWHRGLNVVRYSVNFGVRDARLTTQGMAWFPPGCGQGCV; DGI-2-40F-4-E62; listed as Escherichia coli)	14.8	4.6	4.5	1.0
WFTHVVEKIF [DGI-2-40F-3-A4]	6.7	1.1	1.3	0.8
GRWDGWEVCGIWGADDCASG (DGI-2-20R-4-H1; listed as Escherichia coli)	14.0	9.3	7.8	1.2
RSIRLQLIDEACQFFDGLCT (DGI-2-20R-3-A8; listed as Escherichia coli)	15.3	6.9	6.4	1.1
QMIFSKGNWLAHPEGGVALGLSRESQLFRSCREFGYCMGPM [DGI-2-40F-3-C6]	10.1	2.3	2.8	0.8
RRTSADTDQLSRWEGAQAFSSLRSALSERLDSLRPGLPPS (DGI-2-40F-3-D9; listed as Escherichia coli)	15.8	1.1	1.4	0.8
GLLFTSSPYQCFWVHCTLTMSPLSVLGDLSSTIGRMRASR (DGI-2-40F-3-C52; listed as Escherichia coli)	4.6	1.0	1.3	0.8
DRVARLATPTAGTMAAGSLGYERTVGCDSQDWFRCVVEGL (DGI-2-40F-3-D1044; listed as Escherichia coli)	17.7	7.9	6.2	1.3
RSQVRVVSRERSTPVLIHIRIECLLFSGWCVTSGSDEGVVWG [DGI-2-40F-4-F122]	8.1	4.7	5.7	0.8
VQFAMTLSSRLWQHARHPLTDDAPPTVSFGTRRETLAGKA (DGI-2-40F-3-D3; listed as Escherichia coli)	0.9	0.9	1.1	0.9
CAYRWGLFRGPGRVDYDLQVVGIMMWPGPIPDRSSRGSVA (DGI-2-40F-3-A7; listed as Escherichia coli)	8.7	0.9	1.1	0.8
VGHLLSRCAHHSPGMGASPYG (DGI-2-20F-PP-B11; listed as Escherichia coli)	40.8	2.6	2.7	1.0
WRARSSGYLFALTPNFGVPHIPSSALRRMH.GLMARDLRPV [DGI-2-40F-3-C10]	7.7	1.1	1.3	0.9
GITGLFCLCLRSSQSI (DGI-2-20F-PP-D6; listed as Escherichia coli) [DGI-2-20F-P0P-D6]	5.7	3.3	3.2	1.0
